Laboratory results reported in article PMC10525924, “Engineering and Purification of Microcin C7 Variants Resistant to Trypsin and Analysis of Their Biological Activity” (Antibiotics, 2023).
Converted amounts (≈) assume the structure as drawn. Where a SMILES comes first, the peptide text is derived from it.

Experiments:
chymotrypsin = assay: Remaining amount by RP-HPLC after chymotrypsin treatment; assay type: in vitro ADME; conditions: chymotrypsin (isolated protease); chymotrypsin treated for 3 h; read-out RP-HPLC; Table S2
Description: (§3) To test whether the variants were tolerant to trypsin or other digestive enzymes, the amount of the remaining McC and its analogues remaining was determined by RP-HPLC after trypsin, pepsin, and chymotrypsin treated for 3 h (Table S2), and the inhibition zones of trypsin-treated variants were tested using the same method (Table 2).

E. coli K88 = assay: microbe, parasite or virus in culture; assay type: cell-based; conditions: agar diffusion; for bacteriostatic effect on indicator strain K88: fermentation supernatant, not trypsin-treated; for antimicrobial activity after trypsin treatment, K88 / Diameters of the inhibition zones, Trypsin-Treated Group, K88: supernatant treated with trypsin 50 μg/mL, 37 °C, 3 h; for Diameters of the inhibition zones, Trypsin-Untreated Group, K88: 200 μL fermentation supernatant, 1 × 10^5 CFU/mL, 4 °C 1 h then 37 °C 24 h, chloramphenicol 100 μL of 0.25 μg/mL; for Diameters of the inhibition zones, Trypsin-Untreated Group, K88 / Diameters of the inhibition zones, Trypsin-Treated Group, K88: dash = no zone; for Diameters of the inhibition zones, Trypsin-Treated Group, K88: pH 6.8, 37 °C 24 h
Description: (§1) The pH was adjusted to 6.8.
(§2) The fermentation supernatants and pure products were used to characterize the bacteriostatic effects of McC variants by the agar diffusion and microdilution methods. Yej^+rimL^− and E. coli K88 indicator bacteria were applied. The serotype of E. coli K88 was O149:K91, K88ac, a clinically isolated strain, and provided by the College of Veterinary Medicine, China Agricultural University. The indicated bacteria were diluted to 1 × 10^5 CFU/mL and added to plate medium cooled to 50 °C. Two hundred microliters of supernatants were added to each dish, and diffusion was performed at 4 °C for 1 h. After incubation at 37 °C for 24 h, the diameters of the inhibition zones were determined. One hundred microliters of 0.25 μg/mL chloramphenicol was used as a control. The MICs of the pure McC variants were determined by microdilution in a sterilized 96-well microplate. The McC variants were serially diluted 2 times in 96-well microplates with LB medium. The concentrations of the McC variants ranged from 0.125 to 100 µg/mL. Each well was inoculated with 10 μL of overnight bacterial culture at a concentration of 1.0 × 10^5 CFU/mL and incubated at 37 °C for 24 h. A microplate reader was used to automatically observe changes in absorbance at 600 nm in order to monitor bacterial growth. A positive control group (including inoculated medium) and a negative control group (with medium only) were included. The MIC was determined as the lowest concentration of McC variant that inhibited bacterial growth (preventing an increase in the absorbance reading). All tests were performed in triplicate.

pepsin = assay: Remaining amount by RP-HPLC after pepsin treatment; assay type: in vitro ADME; conditions: pepsin (isolated protease); pepsin treated for 3 h; read-out RP-HPLC; Table S2
Description: as §3

[1] = Remaining amount by RP-HPLC after chymotrypsin treatment; assay type: in vitro ADME; conditions: isolated enzyme chymotrypsin; chymotrypsin treated for 3 h; read-out RP-HPLC; Table S2
Description: as §3

indicator bacteria = conditions: second to seventh codons of mccA replaced; cited from earlier work
From the text: The heptapeptide precursor of McC, f-MRTGNAN, is encoded by the first gene in the mcc gene clusters, mccA [11]. Considering its protein nature, it is suitable for gene-based peptide engineering. Kazakov et al. first applied site-directed mutagenesis on the mccA gene, systematically replacing the second to seventh codons of mccA encoding 19 standard amino acids for a total of 114 mutations.

[2] = HPLC retention time according to hydrophobicity; assay type: physicochemical; conditions: chromatographic, C18 5 μm 9.4 × 250 mm; A 0.1% trichloroacetic acid, B 0.1% trichloroacetic acid with 90% acetonitrile; linear 5% B to 50% B; 1 mL/min; 35 °C; 280 nm; varies according to hydrophobicity
Description: To find the separation peaks of the variants, wildtype McC and blank control fermentation broth samples were tested by HPLC. The separation peaks with obvious differences (those with retention times of 11 min and 17 min) were purified and the antimicrobial activity was determined. […] Therefore, the molecular weight was further analyzed by mass spectrometry, and the separation peak at approximately 17 min was confirmed to be that of the desired purified McC. Since the mutations in this study involved only one amino acid and had few effects on the properties of the peptides, we predicted that the separation peaks of the variants should fluctuate around approximately 17 min according to their hydrophobicity. […] The purity of the purified variants was determined by HPLC to be greater than 80% (Table 3).
The lyophilized supernatants were dissolved in deionized water, filtered through 0.22 μm aqueous-phase filter membranes, and purified by high-performance liquid chromatography (HPLC, Agilent Technologies Inc., Palo Alto, CA, USA) with C18 column (5 μm 9.4 × 250 mm, Agilent Technologies Inc., Palo Alto, CA, USA). The mobile phase was composed of 0.1% (v/v) trichloroacetic acid (solvent A) and 0.1% (v/v) trichloroacetic acid with 90% (v/v) acetonitrile (solvent B). A linear gradient from 95% A/5% B to 50% A/50% B was used with a flow rate of 1 mL/min, a sample volume of 10 μL, a column temperature of 35 °C, and a detection wavelength of 280 nm. Electrospray ionization mass spectrometry (ESI-MS) was used to compare the McC variant masses with the expected masses. The relationships between the relative abundances and the mass-to-charge ratios (m/z) of the ions were determined to confirm the identities of the experimentally produced McC variants.

Yej^+rimL^− strain [3] = assay type: cell-based; conditions: HPLC-purified variants; microdilution in LB, 96-well; 0.125 to 100 µg/mL; 1.0 × 10^5 CFU/mL; 37 °C 24 h; absorbance 600 nm; triplicate
Description: To accurately characterize the bacteriostatic abilities of the variants, the MICs of the pure McC variants toward the McCsensitive strain Yej^+rimL^− were determined. The MICs of all variants were lower than that of wild-type McC. From smallest to largest MIC, the above five variants were in the following order: R2A, R2T, R2Q, R2S, and R2H. […] Although the diameter of the inhibitory zone of R2M was smaller than those of the above five variants, the bacteriostatic ability of R2M was second only to R2T/R2Q, and the MIC was 50 μg/mL.
as §2

[4] = Remaining amount by RP-HPLC after pepsin treatment; assay type: in vitro ADME; conditions: isolated enzyme pepsin; pepsin treated for 3 h; read-out RP-HPLC; Table S2
Description: as §3

Yej^+rimL^− strain [5] = assay: organism not typed; assay type: cell-based; conditions: agar diffusion; for bacteriostatic activity after trypsin treatment, Yej^+rimL^− / Diameters of the inhibition zones, Trypsin-Treated Group, Yej^+rimL^−: supernatant treated with trypsin 50 μg/mL, 37 °C, 3 h; for Diameters of the inhibition zones, Trypsin-Untreated Group, Yej^+rimL^−: 200 μL fermentation supernatant, 1 × 10^5 CFU/mL, 4 °C 1 h then 37 °C 24 h, chloramphenicol 100 μL of 0.25 μg/mL; for Diameters of the inhibition zones, Trypsin-Untreated Group, Yej^+rimL^− / Diameters of the inhibition zones, Trypsin-Treated Group, Yej^+rimL^−: dash = no zone; for Diameters of the inhibition zones, Trypsin-Treated Group, Yej^+rimL^−: pH 6.8, 37 °C 24 h
From the text: To analyze the antimicrobial ability of the variants, we measured the inhibition zones of all 21 variants by the agar diffusion method. The peptide moiety of McC was recognized by a YejABEf-peptide transporter. The rimL contains an acetyltransferase domain homologous to MccE which can detoxify and provide resistance to McC [17]. The overexpression of the YejABEF gene cluster and rimL gene knockout made the strain hypersensitive to McC. Therefore, the Yej^+rimL^− strain was selected as the sensitive indicator bacterial strain.
as §1, §2

Compound | remaining at 3 h (chymotrypsin) [%] | bacteriostatic effect on indicator strain K88 (E. coli K88) | remaining at 3 h (pepsin) [%] | remaining at 3 h [1] [%] | antimicrobial activity of mccA substitution variants (indicator bacteria) | Retention Time [2] [min] | MIC (Yej^+rimL^− strain [3]) [µg/mL] | antimicrobial activity after trypsin treatment, K88 (E. coli K88) | Diameters of the inhibition zones, Trypsin-Untreated Group, K88 (E. coli K88) [mm] | Diameters of the inhibition zones, Trypsin-Treated Group, K88 (E. coli K88) [mm] | remaining at 3 h [4] [%] | bacteriostatic activity after trypsin treatment, Yej^+rimL^− (Yej^+rimL^− strain [5]) | Diameters of the inhibition zones, Trypsin-Untreated Group, Yej^+rimL^− (Yej^+rimL^− strain [5]) [mm] | Diameters of the inhibition zones, Trypsin-Treated Group, Yej^+rimL^− (Yej^+rimL^− strain [5]) [mm]
CSCC[C@H](NC=O)C(=O)N[C@@H](CS)C(=O)N[C@H](C(=O)NCC(=O)N[C@@H](CC(N)=O)C(=O)N[C@@H](C)C(=O)N[C@@H](CC(=O)O)C(=O)NP(=O)(OCCCN)OC[C@H]1O[C@@H](n2cnc3c(N)ncnc32)[C@H](O)[C@@H]1O)[C@@H](C)O (stereo partly shown) [R2C] (HELM PEPTIDE1{[O=C[*:2]].M.C.T.G.N.A.[NCCCOP(=O)(NC(=O)[C@H](CC(=O)O)N[*:1])OC[C@H]1O[C@@H](n2cnc3c(N)ncnc32)[C@H](O)[C@@H]1O]}$$$$V2.0) | 40.9 ± 1.22 | no bacteriostatic effects | 82.5 ± 0.98 |  |  |  |  |  |  |  |  |  |  | 
CSCC[C@H](NC=O)C(=O)N[C@@H](CCC(=O)O)C(=O)N[C@H](C(=O)NCC(=O)N[C@@H](CC(N)=O)C(=O)N[C@@H](C)C(=O)N[C@@H](CC(=O)O)C(=O)NP(=O)(OCCCN)OC[C@H]1O[C@@H](n2cnc3c(N)ncnc32)[C@H](O)[C@@H]1O)[C@@H](C)O (stereo partly shown) [R2E] (HELM PEPTIDE1{[O=C[*:2]].M.E.T.G.N.A.[NCCCOP(=O)(NC(=O)[C@H](CC(=O)O)N[*:1])OC[C@H]1O[C@@H](n2cnc3c(N)ncnc32)[C@H](O)[C@@H]1O]}$$$$V2.0) | 38.4 ± 0.97 | no bacteriostatic effects | 90.72 ± 0.74 |  |  |  |  |  |  |  |  |  |  | 
CSCC[C@H](NC=O)C(=O)N[C@@H](Cc1c[nH]cn1)C(=O)N[C@H](C(=O)NCC(=O)N[C@@H](CC(N)=O)C(=O)N[C@@H](C)C(=O)N[C@@H](CC(=O)O)C(=O)NP(=O)(OCCCN)OC[C@H]1O[C@@H](n2cnc3c(N)ncnc32)[C@H](O)[C@@H]1O)[C@@H](C)O (stereo partly shown) [R2H] (HELM PEPTIDE1{[O=C[*:2]].M.H.T.G.N.A.[NCCCOP(=O)(NC(=O)[C@H](CC(=O)O)N[*:1])OC[C@H]1O[C@@H](n2cnc3c(N)ncnc32)[C@H](O)[C@@H]1O]}$$$$V2.0) |  |  |  | 42.7 ± 0.69 | bacteriostatic | 16.872 | >100 | retained their antimicrobial activity | 15.55 | 11.99 | 82.29 ± 0.52 | exhibited antibacterial effects | 18.39 | 15.92
CSCC[C@H](NC=O)C(=O)N[C@@H](CCSC)C(=O)N[C@H](C(=O)NCC(=O)N[C@@H](CC(N)=O)C(=O)N[C@@H](C)C(=O)N[C@@H](CC(=O)O)C(=O)NP(=O)(OCCCN)OC[C@H]1O[C@@H](n2cnc3c(N)ncnc32)[C@H](O)[C@@H]1O)[C@@H](C)O (stereo partly shown) [R2M] (HELM PEPTIDE1{[O=C[*:2]].M.M.T.G.N.A.[NCCCOP(=O)(NC(=O)[C@H](CC(=O)O)N[*:1])OC[C@H]1O[C@@H](n2cnc3c(N)ncnc32)[C@H](O)[C@@H]1O]}$$$$V2.0) |  |  |  | 43.8 ± 0.68 | loss of antimicrobial activity | 19.622 | 50 (≈ 43.4 µM) |  | 12.37 |  | 88.7 ± 0.93 | exhibited antibacterial effects | 21.57 | 14.31
CSCC[C@H](NC=O)C(=O)N[C@@H](CC(N)=O)C(=O)N[C@H](C(=O)NCC(=O)N[C@@H](CC(N)=O)C(=O)N[C@@H](C)C(=O)N[C@@H](CC(=O)O)C(=O)NP(=O)(OCCCN)OC[C@H]1O[C@@H](n2cnc3c(N)ncnc32)[C@H](O)[C@@H]1O)[C@@H](C)O (stereo partly shown) [R2N] (HELM PEPTIDE1{[O=C[*:2]].M.N.T.G.N.A.[NCCCOP(=O)(NC(=O)[C@H](CC(=O)O)N[*:1])OC[C@H]1O[C@@H](n2cnc3c(N)ncnc32)[C@H](O)[C@@H]1O]}$$$$V2.0) | 37.7 ± 1.1 | no bacteriostatic effects | 88.79 ± 0.88 |  |  |  |  |  |  |  |  |  |  | 
CSCC[C@H](NC=O)C(=O)N1CCC[C@H]1C(=O)N[C@H](C(=O)NCC(=O)N[C@@H](CC(N)=O)C(=O)N[C@@H](C)C(=O)N[C@@H](CC(=O)O)C(=O)NP(=O)(OCCCN)OC[C@H]1O[C@@H](n2cnc3c(N)ncnc32)[C@H](O)[C@@H]1O)[C@@H](C)O (stereo partly shown) [R2P] (HELM PEPTIDE1{[O=C[*:2]].M.P.T.G.N.A.[NCCCOP(=O)(NC(=O)[C@H](CC(=O)O)N[*:1])OC[C@H]1O[C@@H](n2cnc3c(N)ncnc32)[C@H](O)[C@@H]1O]}$$$$V2.0) | 42.8 ± 0.76 | no bacteriostatic effects | 86.9 ± 1.24 |  |  |  |  |  |  |  |  |  |  | 
CSCC[C@H](NC=O)C(=O)N[C@@H](CO)C(=O)N[C@H](C(=O)NCC(=O)N[C@@H](CC(N)=O)C(=O)N[C@@H](C)C(=O)N[C@@H](CC(=O)O)C(=O)NP(=O)(OCCCN)OC[C@H]1O[C@@H](n2cnc3c(N)ncnc32)[C@H](O)[C@@H]1O)[C@@H](C)O (stereo partly shown) [R2S] (HELM PEPTIDE1{[O=C[*:2]].M.S.T.G.N.A.[NCCCOP(=O)(NC(=O)[C@H](CC(=O)O)N[*:1])OC[C@H]1O[C@@H](n2cnc3c(N)ncnc32)[C@H](O)[C@@H]1O]}$$$$V2.0) |  |  |  | 41.3 ± 1.27 | bacteriostatic | 17.004 | 100 (≈ 90.2 µM) | retained their antimicrobial activity | 13.46 | 9.44 | 84.33 ± 0.77 | exhibited antibacterial effects | 17.35 | 16.34
